Laboratory results from US9708316B2 (BRISTOL-MYERS SQUIBB COMPANY, priority 2014, dated 2017).

Target: HIS-TGFβR2 WT (Homo sapiens, UniProt P37173)
Test: HTRF probe-displacement assay, HIS-TGFβR2 WT
Type: binding

Chain of HIS-TGFβR2 WT (P37173 23-567): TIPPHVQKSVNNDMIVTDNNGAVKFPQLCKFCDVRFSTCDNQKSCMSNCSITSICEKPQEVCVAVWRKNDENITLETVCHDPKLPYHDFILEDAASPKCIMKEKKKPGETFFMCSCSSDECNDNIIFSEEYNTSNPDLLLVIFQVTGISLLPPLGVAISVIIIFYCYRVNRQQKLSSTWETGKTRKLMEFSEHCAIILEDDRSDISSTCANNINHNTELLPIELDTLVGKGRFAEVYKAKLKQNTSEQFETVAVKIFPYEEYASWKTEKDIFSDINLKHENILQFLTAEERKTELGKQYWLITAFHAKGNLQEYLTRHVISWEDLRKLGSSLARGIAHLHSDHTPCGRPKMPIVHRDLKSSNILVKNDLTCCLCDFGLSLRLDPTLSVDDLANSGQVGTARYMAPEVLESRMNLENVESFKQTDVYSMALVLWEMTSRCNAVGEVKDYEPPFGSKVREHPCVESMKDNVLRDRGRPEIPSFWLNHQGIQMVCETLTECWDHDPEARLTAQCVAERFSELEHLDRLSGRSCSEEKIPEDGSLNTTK

Row | SMILES | IC50 [µM]
1 | CC(=O)Nc1cc(-c2[nH]c3cc(OC(C)C)cnc3c2-c2cccc(C(F)F)n2)ccn1 [Example 102, N-(4-(3-(6-(Difluoromethyl)pyridin-2-yl)-6-isopropoxy-1H-pyrrolo[3,2-b]pyridin-2-yl)pyridin-2-yl)acetamide] | 3.45
2 | COc1ccnc2c(-c3cccc(F)n3)c(-c3ccnc(NC(C)=O)c3)[nH]c12 [Example 273, N-(4-(3-(6-Fluoropyridin-2-yl)-7-methoxy-1H-pyrrolo[3,2-b]pyridin-2-yl)pyridin-2-yl)acetamide] | 1.36
3 | [2H]C([2H])([2H])Oc1cnc2c(-c3cccc(C(F)F)n3)c(-c3ccnc(NC(C)=O)c3)[nH]c2c1 [Example 100, N-(4-(3-(6-(Difluoromethyl)pyridin-2-yl)-6-(methoxy-d3)-1H-pyrrolo[3,2-b]pyridin-2-yl)pyridin-2-yl)acetamide] | 2.62
4 | COCC(C)Oc1cnc2c(-c3cccc(C(F)F)n3)c(-c3ccnc(NC(C)=O)c3)[nH]c2c1 (centres unmarked) [Example 103] | 4.92
5 | CC(=O)Nc1cc(-c2[nH]c3cc(F)cnc3c2-c2csc(C)n2)ccn1 [Example 207, N-(4-(6-Fluoro-3-(2-methylthiazol-4-yl)-1H-pyrrolo[3,2-b]pyridin-2-yl)pyridin-2-yl)acetamide] | 5.65
6 | COc1cnc2c(-c3csc(C#N)n3)c(-c3ccnc(NC(C)=O)c3)[nH]c2c1 [Example 228, N-(4-(3-(2-Cyanothiazol-4-yl)-6-methoxy-1H-pyrrolo[3,2-b]pyridin-2-yl)pyridin-2-yl)acetamide] | 4.24
7 | CCOc1cnc2c(-c3cccc(C(F)F)n3)c(-c3ccnc(NC(C)=O)c3)[nH]c2c1 [Example 101, N-(4-(3-(6-(Difluoromethyl)pyridin-2-yl)-6-ethoxy-1H-pyrrolo[3,2-b]pyridin-2-yl)pyridin-2-yl)acetamide] | 4.29
8 | CCc1ccnc2c(-c3cccc(C(F)F)n3)c(-c3ccnc(NC(C)=O)c3)[nH]c12 [Example 128, N-(4-{3-[6-(Difluoromethyl)pyridin-2-yl]-7-ethyl-1H-pyrrolo[3,2-b]pyridin-2-yl}pyridin-2-yl)acetamide] | 5.26
9 | COc1ccnc2c(-c3nc(C(F)F)cs3)c(-c3ccnc(NC(C)=O)c3)[nH]c12 [Example 270, N-(4-(3-(4-(Difluoromethyl)thiazol-2-yl)-7-methoxy-1H-pyrrolo[3,2-b]pyridin-2-yl)pyridin-2-yl)acetamide] | 7.55
10 | CC(=O)Nc1cc(-c2[nH]c3cc(Cl)cnc3c2-c2csc(C)n2)ccn1 [Example 181, N-(4-(6-Chloro-3-(2-methylthiazol-4-yl)-1H-pyrrolo[3,2-b]pyridin-2-yl)pyridin-2-yl)acetamide] | 1.07
11 | CC(=O)Nc1cc(-c2[nH]c3cc(OC4COC4)cnc3c2-c2cccc(C(F)F)n2)ccn1 [Example 99, N-(4-(3-(6-(Difluoromethyl)pyridin-2-yl)-6-(oxetan-3-yloxy)-1H-pyrrolo[3,2-b]pyridin-2-yl)pyridin-2-yl)acetamide] | 2.75
